Results taken from ChEMBL document CHEMBL1136051, “Synthesis and antiproliferative activity of a new compound containing an alpha-methylene-gamma-lactone group” (J Med Chem, 2002).

Key:
HL-60 [1] = assay: Concentration required for endonucleolytic DNA cleavage in HL-60 cells; format: functional, cell-based; conditions: Homo sapiens
HL-60 [2] = assay: In vitro antiproliferative activity against HL-60 myeloid leukemia HL-60 cells in culture; format: functional, cell-based; conditions: Homo sapiens

IC50 (HL-60 [2]): 4 µM
Structure (SMILES): C=C1C(=O)O[C@H](CCc2ccc(OC)cc2)[C@H]1C
Concentration (HL-60 [1]): 5 µM
